Experimental data reported in patent US20250228239A1, “MOLECULES HAVING PESTICIDAL UTILITY, AND INTERMEDIATES, COMPOSITIONS, AND PROCESSES, RELATED THERETO” (priority 2024, published 2025).

Experiments:
Format in all cases: in vivo
[1] = test system: Cabbage Looper (Trichoplusia ni, TRIPNI); assay: Bioassays on Cabbage Looper (CL), 128-well diet tray assay; conditions: Trichoplusia ni; Cabbage Looper, Table ABC / ABC-DP rating; read-out: CL rating
Summary of the method: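 Diet tray, 2nd instar, 1–5 larvae/well; 50 μg/cm^2 compound surface-applied (acetone:water 90:10), dried; 8 wells/treatment; 25° C, 14:10 L:D, 5–7 d; % mortality, mean of 8 wells.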

[2] = test system: Yellow Fever Mosquito (Aedes aegypti, AEDSAE); conditions: for YFM rating: Yellow Fever Mosquito, Table ABC / ABC-DP rating
Procedure: Certain molecules disclosed in this document were tested against YFM using procedures described in the following paragraph. In the reporting of the results, the “GPA & YFM Rating Table” was used (See Table Section).
Master plates containing 400 μg of a molecule dissolved in 100 μL of dimethyl sulfoxide (DMSO) (equivalent to a 4000 ppm solution) are used. A master plate of assembled molecules contains 15 μL per well. To this plate, 135 μL of a 90:10 water/acetone mixture is added to each well. A robot (Biomek® NXP Laboratory Automation Workstation) is programmed to dispense 15 μL aspirations from the master plate into an empty 96-well shallow plate (“daughter” plate). There are 6 reps (“daughter” plates) created per master. The created “daughter” plates are then immediately infested with YFM larvae.
The day before plates are to be treated, mosquito eggs are placed in Millipore water containing liver powder to begin hatching (4 g into 400 mL). After the “daughter” plates are created using the robot, they are infested with 220 μL of the liver powder/larval mosquito mixture (about 1 day-old larvae). After plates are infested with mosquito larvae, a non-evaporative lid is used to cover the plate to reduce drying. Plates are held at room temperature for 3 days prior to grading. After 3 days, each well is observed and scored based on mortality. The results are indicated in the table entitled “Table ABC: Biological Results” (See Table Section).

[3] = test system: Beet Armyworm (Spodoptera exigua, LAPHEG); assay: Bioassays on Beet Armyworm (BAW), 128-well diet tray assay; conditions: Spodoptera exigua; Beet Armyworm, Table ABC / ABC-DP rating; read-out: BAW rating
Summary of the method: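 Test molecule was dissolved in 90:10 acetone-water and applied at 50 μg/cm^2 onto artificial diet in eight wells, then dried. Second instar larvae, one to five per well, were added, and trays were kept vented at 25° C. with a 14:10 photoperiod for five to seven days before mortality was recorded.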

SMILES | pest or weed control at 50 µg/cm2 [1] | YFM rating [2] | YFM % Control (or Mortality) rating ([2]; about 1 day-old larvae, 4000 ppm master solution diluted with 90:10 water/acetone, 15 μL per well plus 220 μL larval mixture, 3 days, mortality) | pest or weed control at 50 µg/cm2 [3]
CCNC(=O)c1cc(NC(=O)[C@H]2[C@H](c3ccc(F)c(Cl)c3)C2(Cl)Cl)cc(F)c1OC (relative stereo) [F2057, trans-5-(2,2-Dichloro-3-(3-chloro-4-fluorophenyl)cyclopropane-1-carboxamido)-N-ethyl-3-fluoro-2-methoxybenzamide] | 50 to 100% | A (80–100) |  | 
O=C(NNc1ccc(C(F)(F)F)cc1)c1cc(NC(=O)[C@H]2[C@H](c3cc(Cl)cc(Cl)c3)C2(Cl)Cl)ccc1Cl (relative stereo) [F2571, trans-2,2-Dichloro-N-(4-chloro-3-(2-(4-(trifluoromethyl)phenyl)hydrazine-1-carbonyl)phenyl)-3-(3,5-dichlorophenyl)cyclopropane-1-carboxamide] |  | A (80–100) | A (80–100) | 
CC(CC(F)(F)F)C(=O)Nc1c(F)ccc(NC(=O)c2cc(NC(=O)[C@H]3[C@H](c4ccc(Cl)c(Cl)c4)C3(Cl)Cl)ccc2Cl)c1F (stereo partly drawn) [F1862, 2-Chloro-5-((1R,3R)-2,2-dichloro-3-(3,4-dichlorophenyl)cyclopropane-1-carboxamido)-N-(2,4-difluoro-3-(4,4,4-trifluoro-2-methylbutanamido)phenyl) benzamide] | 50 to 100% |  |  | 50 to 100%
O=C(COCC(F)(F)F)Nc1c(F)ccc(NC(=O)c2cc(NC(=O)[C@H]3[C@H](c4ccc(Cl)c(Cl)c4)C3(Cl)Cl)ccc2Cl)c1F [F1863, 2-Chloro-5-((1R,3R)-2,2-dichloro-3-(3,4-dichlorophenyl)cyclopropane-1-carboxamido)-N-(2,4-difluoro-3-(2-(2,2,2-trifluoroethoxy)acetamido)phenyl) benzamide] | 50 to 100% |  |  | 50 to 100%
CC(F)(F)CCC(=O)Nc1c(F)ccc(NC(=O)c2cc(NC(=O)[C@H]3[C@H](c4ccc(F)c(Cl)c4)C3(Cl)Cl)ccc2Cl)c1F [F1864, 2-Chloro-5-((1R,3R)-2,2-dichloro-3-(3-chloro-4-fluorophenyl)cyclopropane-1-carboxamido)-N-(3-(4,4-difluoropentanamido)-2,4-difluorophenyl)benzamide] | 50 to 100% |  |  | 50 to 100%
O=C(CCC(F)(F)C(F)(F)F)Nc1c(F)ccc(NC(=O)c2cc(NC(=O)[C@H]3[C@H](c4ccc(F)c(Cl)c4)C3(Cl)Cl)ccc2Cl)c1F [F1865, 2-Chloro-5-((1R,3R)-2,2-dichloro-3-(3-chloro-4-fluorophenyl)cyclopropane-1-carboxamido)-N-(2,4-difluoro-3-(4,4,5,5,5-pentafluoropentanamido)phenyl) benzamide] | 50 to 100% |  |  | 50 to 100%
O=C(COCC(F)(F)F)Nc1c(F)ccc(NC(=O)c2cc(NC(=O)[C@H]3[C@H](c4ccc(F)c(Cl)c4)C3(Cl)Cl)ccc2Cl)c1F [F1867, 2-Chloro-5-((1R,3R)-2,2-dichloro-3-(3-chloro-4-fluorophenyl)cyclopropane-1-carboxamido)-N-(2,4-difluoro-3-(2-(2,2,2-trifluoroethoxy)acetamido)phenyl) benzamide] | 50 to 100% |  |  | 50 to 100%
C=C(F)C(=O)Nc1c(F)ccc(NC(=O)c2cc(NC(=O)[C@H]3[C@H](c4ccc(Cl)c(Cl)c4)C3(Cl)Cl)ccc2Cl)c1F [F1871, 2-Chloro-5-((1R,3R)-2,2-dichloro-3-(3,4-dichlorophenyl)cyclopropane-1-carboxamido)-N-(2,4-difluoro-3-(2-fluoroacrylamido)phenyl)benzamide] | 50 to 100% |  |  | 50 to 100%
C=C(F)C(=O)Nc1c(F)ccc(NC(=O)c2cc(NC(=O)[C@H]3[C@H](c4cc(Cl)c(Cl)c(Cl)c4)C3(Cl)Cl)ccc2Cl)c1F [F1872, 2-Chloro-5-((1R,3R)-2,2-dichloro-3-(3,4,5-trichlorophenyl)cyclopropane-1-carboxamido)-N-(2,4-difluoro-3-(2-fluoroacrylamido)phenyl)benzamide] | 50 to 100% |  |  | 50 to 100%
C=CCC(=O)Nc1c(F)ccc(NC(=O)c2cc(NC(=O)[C@H]3[C@H](c4ccc(Cl)c(Cl)c4)C3(Cl)Cl)ccc2Cl)c1F [F1873, N-(3-(But-3-enamido)-2,4-difluorophenyl)-2-chloro-5-((1R,3R)-2,2-dichloro-3-(3,4-dichlorophenyl)cyclopropane-1-carboxamido)benzamide] | 50 to 100% |  |  | 50 to 100%
C=CCC(=O)Nc1ccc(F)c(NC(=O)c2cc(NC(=O)[C@H]3[C@H](c4cc(Cl)c(Cl)c(Cl)c4)C3(Cl)Cl)cc(F)c2F)c1F [F1875, N-(3-(But-3-enamido)-2,6-difluorophenyl)-5-((1R,3R)-2,2-dichloro-3-(3,4,5-trichlorophenyl)cyclopropane-1-carboxamido)-2,3-difluorobenzamide] | 50 to 100% |  |  | 50 to 100%
C=CC(=O)Nc1c(F)ccc(NC(=O)c2cc(NC(=O)[C@H]3[C@H](c4ccc(F)c(C(F)(F)F)c4)C3(Cl)Cl)ccc2Cl)c1F [F1877, N-(3-Acrylamido-2,4-difluorophenyl)-2-chloro-5-((1R,3R)-2,2-dichloro-3-(4-fluoro-3-(trifluoromethyl)phenyl)cyclopropane-1-carboxamido)benzamide] | 50 to 100% |  |  | 50 to 100%
C=CCC(=O)Nc1c(F)ccc(NC(=O)c2cc(NC(=O)[C@H]3[C@H](c4ccc(F)c(Br)c4)C3(Cl)Cl)ccc2Cl)c1F [F1880, 5-((1R,3R)-3-(3-Bromo-4-fluorophenyl)-2,2-dichlorocyclopropane-1-carboxamido)-N-(3-(but-3-enamido)-2,4-difluorophenyl)-2-chlorobenzamide] | 50 to 100% |  |  | 50 to 100%
CCNC(=O)c1c(Cl)ccc(NC(=O)[C@H]2[C@H](c3ccc(F)c(Cl)c3)C2(Cl)Cl)c1F [F2071, 6-Chloro-3-((1R,3R)-2,2-dichloro-3-(3-chloro-4-fluorophenyl)cyclopropane-1-carboxamido)-N-ethyl-2-fluorobenzamide] | 50 to 100% |  |  | 50 to 100%
O=C(NCC(F)(F)F)c1c(Cl)ccc(NC(=O)[C@H]2[C@H](c3ccc(F)c(Cl)c3)C2(Cl)Cl)c1F [F2072, 6-Chloro-3-((1R,3R)-2,2-dichloro-3-(3-chloro-4-fluorophenyl)cyclopropane-1-carboxamido)-2-fluoro-N-(2,2,2-trifluoroethyl)benzamide] | 50 to 100% |  |  | 50 to 100%
O=C(NCC(F)(F)C(F)(F)F)c1c(Cl)ccc(NC(=O)[C@H]2[C@H](c3ccc(F)c(Cl)c3)C2(Cl)Cl)c1F [F2073, 6-Chloro-3-((1R,3R)-2,2-dichloro-3-(3-chloro-4-fluorophenyl)cyclopropane-1-carboxamido)-2-fluoro-N-(2,2,3,3,3-pentafluoropropyl)benzamide] | 50 to 100% |  |  | 50 to 100%
O=C(NCCCCl)c1c(Cl)ccc(NC(=O)[C@H]2[C@H](c3ccc(F)c(Cl)c3)C2(Cl)Cl)c1F [F2074, 6-Chloro-N-(3-chloropropyl)-3-((1R,3R)-2,2-dichloro-3-(3-chloro-4-fluorophenyl)cyclopropane-1-carboxamido)-2-fluorobenzamide] | 50 to 100% |  |  | 50 to 100%
O=C(NCC(F)(F)F)c1cc(NC(=O)[C@H]2[C@H](c3ccc(F)c(C(F)(F)F)c3)C2(Cl)Cl)c(F)cc1Cl [F2084, 2-Chloro-5-((1R,3R)-2,2-dichloro-3-(4-fluoro-3-(trifluoromethyl)phenyl)cyclopropane-1-carboxamido)-4-fluoro-N-(2,2,2-trifluoroethyl)benzamide] | 50 to 100% |  |  | 50 to 100%
O=C(NCC(F)(F)F)c1cc(NC(=O)[C@H]2[C@H](c3ccc(F)c(F)c3)C2(Cl)Cl)ccc1Cl [F2099, 2-Chloro-5-((1R,3R)-2,2-dichloro-3-(3,4-difluorophenyl)cyclopropane-1-carboxamido)-N-(2,2,2-trifluoroethyl)benzamide] | 50 to 100% |  |  | 50 to 100%
O=C(NCC(F)(F)F)c1cc(NC(=O)[C@@H]2[C@@H](c3ccc(F)c(F)c3)C2(Cl)Cl)ccc1Cl [F2100, 2-Chloro-5-((1S,3S)-2,2-dichloro-3-(3,4-difluorophenyl)cyclopropane-1-carboxamido)-N-(2,2,2-trifluoroethyl)benzamide] | 50 to 100% |  |  | 50 to 100%
